Measurements as given in PMC10454678, “Synthesis of hydroxy benzoin/benzil analogs and investigation of their antioxidant, antimicrobial, enzyme inhibition, and cytotoxic activities” (Turkish Journal of Chemistry, 2021).
≈ marks a conversion by molar mass, not a printed value. Read-outs that look alike come from different tables or passages of the source.

What was measured:
[1] = Copper ions reducing activity (CUPRAC); details: Trolox equivalents; 30 min dark, room temperature, 450 nm
[2] = DPPH radical scavenging activity; details: 0.1 mM DPPH, 50 min dark, 517 nm
[3] = test system: Escherichia coli ATCC 25922; assay: MIC, microdilution, E. coli; assay type: cell-based; details: Escherichia coli
[4] = test system: Pseudomonas aeruginosa ATCC27853; assay: MIC, microdilution, P. aeruginosa; assay type: cell-based; details: Pseudomonas aeruginosa
acetylcholinesterase = acetylcholinesterase (Homo sapiens, UniProt P22303); assay: biochemical; details: Tris-HCl pH 8.0, 25 °C, 405 nm; read-out: AChE IC50 (converted)
acetylcholinesterase, sequence (P22303 32-614, species assumed): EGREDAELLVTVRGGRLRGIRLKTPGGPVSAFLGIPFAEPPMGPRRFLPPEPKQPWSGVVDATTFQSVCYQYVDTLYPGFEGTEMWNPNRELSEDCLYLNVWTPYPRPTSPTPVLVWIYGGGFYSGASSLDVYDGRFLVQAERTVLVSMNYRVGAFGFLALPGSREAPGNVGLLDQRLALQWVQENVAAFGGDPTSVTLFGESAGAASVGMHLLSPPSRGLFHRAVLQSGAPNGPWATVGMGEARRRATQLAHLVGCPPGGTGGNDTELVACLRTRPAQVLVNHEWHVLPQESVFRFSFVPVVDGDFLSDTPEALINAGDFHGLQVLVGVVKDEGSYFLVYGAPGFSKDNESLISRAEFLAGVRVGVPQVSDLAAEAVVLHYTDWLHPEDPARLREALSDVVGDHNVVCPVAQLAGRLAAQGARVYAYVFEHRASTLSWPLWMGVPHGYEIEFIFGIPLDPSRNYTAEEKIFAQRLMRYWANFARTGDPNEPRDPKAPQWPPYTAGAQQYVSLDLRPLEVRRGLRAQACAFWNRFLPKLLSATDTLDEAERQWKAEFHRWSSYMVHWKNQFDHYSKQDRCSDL

[5] = test system: Mycobacterium smegmatis ATCC607; assay: MIC, microdilution, M. smegmatis; assay type: cell-based; details: Tub., BHI broth, 36 °C; for MIC: Mycolicibacterium smegmatis, ATCC607, 72 h, read-out: MIC Ms; for MIC Ms: 72 h
α-glucosidase = assay: α-Glucosidase inhibition; assay type: biochemical; details: PNPG, pH 6.8, 37 °C, 400 nm
Procedure: It was incubated at 37 °C for 15 min. Similarly, an enzyme-free blank was prepared. The reaction was stopped when sodium carbonate (50 μL, 0.2 M) was added.

[6] = Ferric reducing antioxidant power (FRAP) assay; details: Trolox equivalents; compounds 2 mg/mL, 30 °C 30 min, 595 nm
Bacillus cereus Roma709 = assay: MIC, microdilution, B. cereus; assay type: cell-based; details: Bacillus cereus
[7] = test system: Yersinia pseudotuberculosis ATCC911; assay: microbe, parasite or virus in culture; assay type: cell-based; details: Yersinia pseudotuberculosis, ATCC911, read-out: MIC Yp
[8] = test system: Candida albicans ATCC60193; assay: MIC, microdilution, C. albicans; assay type: cell-based; details: Candida albicans, read-out: MIC Ca
butyrylcholinesterase = butyrylcholinesterase (Homo sapiens, UniProt P06276); assay: biochemical; details: Tris-HCl pH 8.0, 25 °C, 405 nm; read-out: BChE IC50 (converted)
butyrylcholinesterase, sequence (P06276 29-602): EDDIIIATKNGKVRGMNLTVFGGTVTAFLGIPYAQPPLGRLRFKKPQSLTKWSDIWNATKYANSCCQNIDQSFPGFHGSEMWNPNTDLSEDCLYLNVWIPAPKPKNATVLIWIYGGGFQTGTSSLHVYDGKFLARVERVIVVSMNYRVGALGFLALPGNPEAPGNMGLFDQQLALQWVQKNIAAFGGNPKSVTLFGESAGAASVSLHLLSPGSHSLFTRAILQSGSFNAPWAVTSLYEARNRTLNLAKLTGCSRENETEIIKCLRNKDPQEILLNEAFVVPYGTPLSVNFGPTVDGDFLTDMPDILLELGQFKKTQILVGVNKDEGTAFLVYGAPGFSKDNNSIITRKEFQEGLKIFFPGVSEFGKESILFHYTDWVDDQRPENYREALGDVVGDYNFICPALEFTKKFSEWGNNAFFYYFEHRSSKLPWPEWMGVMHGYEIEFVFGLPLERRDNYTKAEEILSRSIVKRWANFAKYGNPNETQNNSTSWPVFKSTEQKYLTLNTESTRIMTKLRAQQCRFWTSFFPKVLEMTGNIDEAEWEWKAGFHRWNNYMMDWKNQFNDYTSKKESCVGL

[9] = test system: Enterococcus faecalis ATCC29212; assay: MIC, microdilution, E. faecalis; assay type: cell-based; details: Enterococcus faecalis
[10] = test system: Streptococcus mutans RSKK07038; assay: MIC, microdilution, S. mutans; assay type: cell-based; details: Streptococcus mutans, read-out: MIC Sm
[11] = test system: Staphylococcus aureus ATCC25923; assay: MIC, microdilution, S. aureus; assay type: cell-based; details: Staphylococcus aureus
[12] = test system: human retinal normal cell line (RPE); assay: MTT cell proliferation, RPE; details: Homo sapiens, 24 h; for GI50: read-out: GI50 RPE normal cell line; for IC50: read-out: IC50 RPE normal cell line
[13] = test system: human cervical cancer cell line (HeLa); assay: MTT cell proliferation, HeLa; details: Homo sapiens, HeLa, 24 h; for GI50: read-out: GI50 HeLa cell line; for IC50: read-out: IC50 HeLa cell line
[14] = test system: Paenibacillus larvae DSM7030; assay: MIC, microdilution, P. larvae; assay type: cell-based; details: Gram (+) nonpathogenic spore forming
[15] = ATCC25922, Gram (-), Mueller-Hinton broth, 18-24 h, 36 °C, read-out: MIC Ec
[16] = ATCC27853, Gram (-), Mueller-Hinton broth, 18-24 h, 36 °C, read-out: MIC Pa
[17] = ATCC60193, fungus, YEPD broth, 48 h, 36 °C
[18] = ATCC29212, Gram (+), Mueller-Hinton broth, 18-24 h, 36 °C, read-out: MIC Ef
[19] = RSKK07038, Gram (+), BHI broth, 72 h, 36 °C
[20] = ROMA709, Gram (+), Mueller-Hinton broth, 18-24 h, 36 °C, read-out: MIC Bc
[21] = ATCC25923, Gram (+), Mueller-Hinton broth, 18-24 h, 36 °C, read-out: MIC Sa

| SMILES | CUPRAC, copper reducing antioxidant power [1] [μg/mL trolox/gram DW] | DPPH radical scavenging capacity (SC50) [2] [mg/mL] | MIC [3, 15] [µg/mL] | MIC [4, 16] [µg/mL] | IC50 (acetylcholinesterase) [mM] | MIC [5] [µg/mL] | α-Glucosidase IC50 (α-glucosidase) [µg/mL] | FRAP, the iron reducing antioxidant power [6] [μg/mL trolox/gram DW] | MIC [7] [µg/mL] | MIC [8, 17] [µg/mL] | IC50 (butyrylcholinesterase) [mM] | MIC [9, 18] [µg/mL] | MIC [10, 19] [µg/mL] | MIC Ms [5] [µg/mL] | MIC (Bacillus cereus Roma709; [20]) [µg/mL] | MIC [11, 21] [µg/mL] | MIC ([3]; ATCC25922, read-out: MIC Ec) [µg/mL] | GI50 [12] [µg/mL] | IC50 [12] [µg/mL] | GI50 [13] [µg/mL] | other results |
| --- | --- | --- | --- | --- | --- | --- | --- | --- | --- | --- | --- | --- | --- | --- | --- | --- | --- | --- | --- | --- | --- |
| O=C(c1cc(O)cc(O)c1)C(O)c1ccccc1 (stereo not drawn) [Compound 3, 2-Hydroxy-1-(3,5-dihydroxyphenyl)-2-phenylethanone] | 90.00 ± 6.8 | 8.72 ± 0.26 | 820 (≈ 3360 µM) | 207 (≈ 848 µM) | 1.63 | 103 (≈ 422 µM) | 812.10 | 1111 ± 47.9 | 1660 (≈ 6780 µM) | 414 (≈ 1700 µM) | 0.592 | 820 (≈ 3360 µM) | 414 (≈ 1700 µM) | – | – | – | – | – | – | – | MIC (Bacillus cereus Roma709; ROMA709, read-out: MIC Bc): 207 µg/mL (≈ 848 µM); MIC ([11]; ATCC25923, read-out: MIC Sa): 207 µg/mL (≈ 848 µM) |
| O=C(C(=O)c1cccc(O)c1)c1cccc(O)c1 [Compound 11, 1,2-Bis(3-hydroxyphenyl)ethane-1,2-dione] | 175.00 ± 3.5 | 10.03 ± 0.8 | 36 (≈ 149 µM) | 18 (≈ 74.3 µM) | 0.257 | 9 to 18 (≈ 37.2 to 74.3 µM) | 66.700 | 1340 ± 37.9 | 145 (≈ 599 µM) | 36 (≈ 149 µM) | 1.4 | – | 18 (≈ 74.3 µM) | 9 (≈ 37.2 µM) | 18 (≈ 74.3 µM) | 9 (≈ 37.2 µM) | – | – | – | – | – |
| O=C(C(=O)c1cc(O)cc(O)c1)c1cccc(O)c1 [Compound 13, 1-(3,5-Dihydroxyphenyl)-2-(3-hydroxyphenyl)ethane-1,2-dione] | – | 9.42 ± 0.8 | – | – | > 3.87 | 9 to 18 (≈ 34.9 to 69.7 µM) | >1000 | 1844 ± 56.2 | 167 (≈ 647 µM) | – | > 3.87 | – | – | 11 (≈ 42.6 µM) | 11 (≈ 42.6 µM) | 11 (≈ 42.6 µM) | 167 (≈ 647 µM) | – | – | – | MIC ([4]; ATCC27853, read-out: MIC Pa): 11 µg/mL (≈ 42.6 µM); MIC ([8]; ATCC60193, 48 h): 41 µg/mL (≈ 159 µM); MIC ([9]; ATCC29212, read-out: MIC Ef): 21 µg/mL (≈ 81.3 µM); MIC ([10]; RSKK07038, 72 h): 21 µg/mL (≈ 81.3 µM) |
| O=C(C(=O)c1cccc(O)c1)c1ccc(O)cc1 [Compound 12, 1-(4-Hydroxyphenyl)-2-(3-hydroxyphenyl)ethane-1,2-dione] | 155.00 ± 1.0 | 12.87 ± 0.9 | 75 (≈ 310 µM) | 75 (≈ 310 µM) | 2.07 | 9 to 18 (≈ 37.2 to 74.3 µM) | 54.69 | 1555 ± 34.1 | 38 (≈ 157 µM) | 18 (≈ 74.3 µM) | 1.91 | 18 (≈ 74.3 µM) | – | 18 (≈ 74.3 µM) | 75 (≈ 310 µM) | 38 (≈ 157 µM) | – | 1.92 (≈ 7.93 µM) | 105 (≈ 434 µM) | 2.04 (≈ 8.42 µM) | IC50 [13]: 85.2 µg/mL (≈ 352 µM) |
| O=C(C(=O)c1cccc(O)c1)c1ccccc1 [Compound 8, 1-(3-Hydroxyphenyl)-2-phenylethane-1,2-dione] | 1095.00 ± 18.1 | 13.56 ± 1.2 | – | 11 (≈ 48.6 µM) | > 4.42 | 9 to 18 (≈ 39.8 to 79.6 µM) | >1000 | 1678 ± 64.6 | 167 (≈ 738 µM) | 41 (≈ 181 µM) | > 4.42 | 21 (≈ 92.8 µM) | 21 (≈ 92.8 µM) | 11 (≈ 48.6 µM) | 11 (≈ 48.6 µM) | 11 (≈ 48.6 µM) | 167 (≈ 738 µM) | – | – | – | – |
| O=C(C(=O)c1cccc(OC2O[C@H](CO)[C@@H](O)[C@H](O)[C@H]2O)c1)c1ccc(O)cc1 (stereo partly drawn) [Compound 25, 1-(3-O-β -D-Glucopyranosylphenyl)-2-(4-hydroxyphenyl)ethane-1,2-dione] | 147.54 ± 25.04 | 26.33 ± 0.39 | 8 to 15 (≈ 19.8 to 37.1 µM) | – | 0.562 | 8 to 15 (≈ 19.8 to 37.1 µM) | >1000 | 2570.42 ± 25.01 | – | – | 0.331 | – | – | – | – | – | – | 3.38 (≈ 8.36 µM) | 102 (≈ 252 µM) | 2.21 (≈ 5.47 µM) | MIC [14]: 8 to 15 µg/mL (≈ 19.8 to 37.1 µM); IC50 [13]: 81.5 µg/mL (≈ 202 µM) |
